Experimental data taken from the supplement of paper PMC10307832.

Experiments:
Assay in all cases: relative viability (nuclei count vs DMSO), 5 days (fraction); higher = more cells survive
NCI-H2405 = system: NCI-H2405
Outline: (§1)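 Relative viability equals treated-well nuclei counts divided by vehicle-well nuclei counts. Counts came from 4× images of lung cancer cell lines grown in 1536-well plates for 5 days after pin-tool dosing on the day after seeding. Dosing used one drug alone or a fixed anchor-drug dose plus five library-drug doses (not always all listed) in √10 steps, and values are medians of duplicate plates.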

NCI-H2023 = system: NCI-H2023
Outline: as §1

NCI-H520 = system: NCI-H520
Outline: as §1

COR-L23 = system: COR-L23
Outline: as §1

NCI-H1793 = system: NCI-H1793
Outline: as §1

NCI-H650 = system: NCI-H650
Outline: as §1

HCC-44 = system: HCC-44
Outline: as §1

EMC-BAC-2 = system: EMC-BAC-2
Outline: as §1

LU99A = system: LU99A
Outline: as §1

HCC-827 = system: HCC-827
Outline: as §1

NCI-H1651 = system: NCI-H1651
Outline: as §1

Which results are given for CC(=O)O[C@@]12CO[C@@H]1C[C@H](O)[C@@]1(C)C(=O)[C@H](O)C3=C(C)[C@@H](OC(=O)[C@H](O)[C@@H](NC(=O)OC(C)(C)C)c4ccccc4)C[C@@](O)([C@@H](OC(=O)c4ccccc4)[C@H]21)C3(C)C [Docetaxel] + N=C(N)NC(=N)NCCc1ccccc1 [Phenformin] (partner 250 µM)?
relative viability (NCI-H2405; first compound 0.0002 µM): 0.393; relative viability (NCI-H2405; first compound 0.000632 µM): 0.419; relative viability (NCI-H2405; first compound 0.002 µM): 0.315; relative viability (NCI-H2405; first compound 0.006325 µM): 0.297; relative viability (NCI-H2405; first compound 0.02 µM): 0.26; relative viability (NCI-H2023; first compound 0.0002 µM): 0.358; relative viability (NCI-H2023; first compound 0.000632 µM): 0.292; relative viability (NCI-H2023; first compound 0.002 µM): 0.118; relative viability (NCI-H2023; first compound 0.006325 µM): 0.0961; relative viability (NCI-H2023; first compound 0.02 µM): 0.0806; relative viability (NCI-H520; first compound 0.0002 µM): 0.585; relative viability (NCI-H520; first compound 0.000632 µM): 0.604; relative viability (NCI-H520; first compound 0.002 µM): 0.37; relative viability (NCI-H520; first compound 0.006325 µM): 0.255; relative viability (NCI-H520; first compound 0.02 µM): 0.148; relative viability (COR-L23; first compound 0.0002 µM): 0.399; relative viability (COR-L23; first compound 0.000632 µM): 0.32; relative viability (COR-L23; first compound 0.002 µM): 0.167; relative viability (COR-L23; first compound 0.006325 µM): 0.106; relative viability (COR-L23; first compound 0.02 µM): 0.098; relative viability (NCI-H1793; first compound 0.0002 µM): 0.302; relative viability (NCI-H1793; first compound 0.000632 µM): 0.319; relative viability (NCI-H1793; first compound 0.002 µM): 0.322; relative viability (NCI-H1793; first compound 0.006325 µM): 0.245; relative viability (NCI-H1793; first compound 0.02 µM): 0.173; relative viability (NCI-H650; first compound 0.0002 µM): 0.447; relative viability (NCI-H650; first compound 0.000632 µM): 0.397; relative viability (NCI-H650; first compound 0.002 µM): 0.332; relative viability (NCI-H650; first compound 0.006325 µM): 0.19; relative viability (NCI-H650; first compound 0.02 µM): 0.21; relative viability (HCC-44; first compound 0.0002 µM): 0.185; relative viability (HCC-44; first compound 0.000632 µM): 0.113; relative viability (HCC-44; first compound 0.002 µM): 0.113; relative viability (HCC-44; first compound 0.006325 µM): 0.101; relative viability (HCC-44; first compound 0.02 µM): 0.0735; relative viability (EMC-BAC-2; first compound 0.0002 µM): 0.509; relative viability (EMC-BAC-2; first compound 0.000632 µM): 0.412; relative viability (EMC-BAC-2; first compound 0.002 µM): 0.306; relative viability (EMC-BAC-2; first compound 0.006325 µM): 0.278; relative viability (EMC-BAC-2; first compound 0.02 µM): 0.177; relative viability (LU99A; first compound 0.0002 µM): 0.811; relative viability (LU99A; first compound 0.000632 µM): 0.656; relative viability (LU99A; first compound 0.002 µM): 0.364; relative viability (LU99A; first compound 0.006325 µM): 0.335; relative viability (LU99A; first compound 0.02 µM): 0.242; relative viability (HCC-827; first compound 0.0002 µM): 0.392; relative viability (HCC-827; first compound 0.000632 µM): 0.426; relative viability (HCC-827; first compound 0.002 µM): 0.357; relative viability (HCC-827; first compound 0.006325 µM): 0.247; relative viability (HCC-827; first compound 0.02 µM): 0.213; relative viability (NCI-H1651; first compound 0.0002 µM): 0.266; relative viability (NCI-H1651; first compound 0.000632 µM): 0.342; relative viability (NCI-H1651; first compound 0.002 µM): 0.194; relative viability (NCI-H1651; first compound 0.006325 µM): 0.087; relative viability (NCI-H1651; first compound 0.02 µM): 0.0897
